Consider 3 molecules from patent EP0835125B1, “CD4-DERIVED PEPTIDES THAT INHIBIT IMMUNE RESPONSES” (THOMAS JEFFERSON UNIVERSITY, priority 1995, dated 2004).

In assay [1] the test system is interaction of CD4 and MHC, class II. Kind of assay: Rosetting of Raji cells and CD4-transiently transfected COS-7 cells, microscopic count. In kind it is cell-based, human. To be noted: 200 µM, three independent assays. As for the experimental part:
The cyclic peptide CNSNQIC (SEQ ID NO:45) at 200 µM was tested to determine if the peptide inhibited the interaction of CD4 and MHC, class II. The test was performed by rosetting Raji cells and CD4-transiently transfected COS-7 cells. See: Moebius, U. et al., 1992, Proc. Natl. Acad. Sci. 89:12008-12; Moebius, U., et al., 1993, Proc. Natl. Acad. Sci. 90:8259-63.
The sequence of human CD4 cDNA is given in Maddon, P.J. et al., 1985, CELL 42:93-104, which sequence is hereby incorporated by reference. […]
For transfection of COS-7 cells, a CD4-expression plasmid T4-pcDNA3, was constructed by subcloning the 3.0 Kb Eco R1 fragment of T4-pMV7 into the EcoRI site of the mammalian expression vector pcDNA3 (INVITROGEN). […] Rosette formation between Raji cells and transfected COS-7 cells was scored microscopically at 100-fold magnification. The number of rosette containing more than five Raji cells was counted in 10 random optical fields in each individual well; 300-400 rosettes per well were counted as the positive control for rosette formation without any inhibition in the absence of any chemicals. The inhibition activity for rosette formation for each chemical was determined by the ratio of the number of rosettes obtained in the presence of this chemical to the number of rosettes in the positive control. […]

Assay [2] shares this test system. Put plainly: Rosetting of Cr51-labelled Raji cells to stably T4-pMV7-transfected COS-1 cells. The class given is cell-based, human. The following applies: 200 µM. The text has this: In a second construct, the T4-pMV7 plasmid, which contains a Tn5 neo selectable marker, was introduced into Cos-1 cells by electroporation. Stably transfected cells were isolated by selection with G-418 and the resultant transformants expressed CD4.
Raji cells were labelled with Cr^51 and rosetted to the stably T4-pMV7-transfected COS-1 cells.

The test system of assay [3] is responder cell alloreactive proliferation (human T cell). The following applies: for inhibition (suppressive effect on human T cell activation): 3 h, 100 µM; for activity in human MLR / human T cell proliferation in vitro, in words: in b95 the words describe the cyclic peptide relative to the linear peptides KNSNQI, KNSNQ, NSNQI (linear ones less active).
Protocol: For this assay, fresh peripheral blood lymphocytes from two different donors are co-cultured; the cells of one donor were irradiated and served as stimulators. Proliferation of these activated T cells was measured by measuring the incorporation of ^3H-thymidine at various timepoints.
For human MLR, 50 ml of whole blood was collected into anti-coagulant (ACD, acid citrate dextrose) containing tubes. In 50 ml conical tubes, 20 ml of blood was layered over 20 ml Ficoll 1077 (Sigma Chemical Co., St. Louis, MO) and centrifuged at 2000 rpm for 35-40 min at 15-20°C. Buffy coats and serum were collected in 3x volume of PBS centrifuged at 1500 rpm for 15 min at 15-20°C. Supernatants were discarded, cells were washed 2x in 50 ml PBS and resuspended in RPMI supplemented with 10% heat-inactivated (56°, 30 min) human serum (cat# H4522, Sigma), 50 IU/ml pen/strep and 2mM (1% of 200 mM stock) L-glutamine (both from BioWhitaker). Lymphocyte yield varied between 5-8x10^7.
In a 96-well flat bottom plate 1 x 10^5 responders were plated with 2 x 10^5 irradiated (3000 rad) simulators/well (added in 100 µl each), and incubated for 6, 7 or 8 days at 37°C, 7% CO2. Peptide analogues were added to quadruplicate wells, at a concentration of 100 µM (5 mg/ml stock) or titrations thereof, immediately after cells were plated. For radiolabelling, the cells were incubated with 1 µCi [^3H]TdR/well (25 µl) (diluted from 1mCi/ml stock, Amersham) for the final 6 hours of incubation. Cells were harvested using a fiberfilter cell harvester (e.g., Harvester 96, Tomtec) and counted in a Beta Counter of Beta plate reader (1205 BS Betaplate Liquid Scintillation Counter, Wallac) with scintillation fluid.
Assay [4] relates to EAE. Kind of assay: EAE inhibition in vivo, SJL EAE model, daily severity score on 0-5 scale. Details: species or system mice. The following applies: for effect on EAE in mice, in words: b73: 0.5 mg dose i.v. 12 days after immunization. The protocol:
The C-C' loop peptides were initially tested for efficacy in the SJL EAE model. In untreated animals, a high incidence of disease was observed 15-22 days after two s.c. inoculations of 1 mg of crude murine spinal cord homogenate in complete Freund's adjuvant. The severity of the disease was scored daily using the established 0-5 scale that describes the level of ascending paresis, Korngold, R., et al., 1986, Immunogenetics 24:309-315. The level of the mean EAE severity grade of mice for the untreated control group reached a maximum of 2.0. […] Also shown are the results of groups of mice that received the rD-mPGPtide, a mimic of residues 86-104 of murine homolog of CD4, which was described in Jameson et al. 1994, Nature 368:744-746.

In assay [5] the target is MHC, class II, gene products on Raji cells (human). Put plainly: rosette assay, Raji cells (MHC class II) on CD4-transiently transfected COS-7 cells, peptide at 200 uM, blocks CD4/MHC class II interaction; independent assay 1 of 3.
For assay [6] the target is unchanged. Put plainly: rosette assay, Raji cells (MHC class II) on CD4-transiently transfected COS-7 cells, peptide at 200 uM, blocks CD4/MHC class II interaction; independent assay 3 of 3.
Assay [7] shares this target. Kind of assay: rosette assay, Cr51-labelled Raji cells (MHC class II) on stably T4-pMV7-transfected COS-1 cells (CD4), peptide at 200 uM.
Assay [8] has the same target. Put plainly: rosette assay, Raji cells (MHC class II) on CD4-transiently transfected COS-7 cells, peptide at 200 uM, blocks CD4/MHC class II interaction; independent assay 2 of 3.
[9] abbreviates: listed as CNSNQIC (SEQ ID NO:44).

Values joined by “and” are separate entries in the source; they are usually repeats but may differ in a detail not shown here. Equal values may be shown once. Read-outs that look alike come from different tables or passages of the source. Bridge positions count the residues as written; N and C are the ends. Peptide text beside a SMILES is read from it.

Regarding `CC[C@H](C)[C@@H]1NC(=O)[C@H](CCC(N)=O)NC(=O)[C@H](CC(N)=O)NC(=O)[C@H](CO)NC(=O)[C@H](CC(N)=O)NC(=O)[C@@H](N)CSSC[C@@H](C(=O)O)NC1=O` [CNSNQIC (SEQ ID NO:45), CNSNQIC] (H-CNSNQIC-OH; disulfide 1-7 (inferred); N-terminus and C-terminus assumed), in assay [1], the “inhibition of the rosettes” value was 57% and 63% and 51%. Further, the inhibition of rosetting entry in assay [2] is “greater than 75%”. The “inhibition (suppressive effect on human T cell activation)” value in assay [3] stood at 54.4%. Further, the “activity in human MLR / human T cell proliferation in vitro, in words” value is given as “significantly higher activity than the linear peptides” in assay [3] and “highly potent inhibitor of human T cell proliferation” in assay [3] (setting [9]). Also, the “maximum severity level (mean EAE severity grade)” value in assay [4] (0.5 mg i.v. on day 12, 0-5 scale, untreated control group maximum 2.0) is on record as 1.0. For the same molecule, the “effect on EAE in mice, in words” value is on record as “effective to ameliorate EAE” in assay [4] and “inhibitor of EAE in mice” in assay [4] (setting [9]).
On to `CC[C@H](C)[C@H](NC(=O)[C@H](CCC(N)=O)NC(=O)[C@H](CC(N)=O)NC(=O)[C@H](CO)NC(=O)[C@H](CC(N)=O)NC(=O)[C@@H](N)CS)C(=O)N[C@@H](CS)C(=O)O` [linear CNSNQIC, CNSNQIC] (H-CNSNQIC-OH), for which the “inhibition (suppressive effect on human T cell activation)” value in assay [3] stood at 32.2%.
Take cyclic peptide CNSNQIC (SEQ ID NO:45): the values for the percent inhibition of rosettes in assay [5], in assay [6] and in assay [8] were 57%, 51% and 63%, respectively. The percent inhibition of rosetting in assay [7] is over 75%.
